The values below come from paper PMC9436859, “Chromatographic separation of glycated peptide isomers derived from glucose and fructose” (Analytical and Bioanalytical Chemistry, 2022).

Type in all cases: physicochemical
Data set [1] is described as follows: RP-HPLC retention at neutral pH, Aqua C18, sodium phosphate. Particulars: Aqua C18 (3 µm, 125 Å), sodium phosphate 10 mmol/L pH 7.2, 0.6% acetonitrile/min, 60 °C, UV 214 nm, mixture of family #2, order from individual injections. How it is done: (§1) Separations used either a Synergi Fusion-RP C18 column (ID: 2 mm, length: 150 mm, particle size: 4 µm, pore size: 80 Å, Phenomenex) or Aqua C18 column (ID: 2 mm, length: 150 mm, particle size: 3 µm, pore size: 125 Å, Phenomenex) using a System Gold HPLC equipped with a 507e autosampler (100 µL injection volume), a 125NM binary gradient pump, and a 166 UV/VIS detector. Eluents were water (eluent B1) and aqueous acetonitrile (60% v/v, eluent B2 or 40% v/v, eluent B3) containing sodium or potassium phosphate buffer or ammonium acetate (10 mmol/L). Eluents were prepared from aqueous stock solutions (0.1 mol/L) adjusted to pH 7.2, in case of ammonium acetate with ammonia. Solvents were filtered (pore size, 0.2 µm; Pall Corp., Ann Arbor, MI) and sonicated for 15 min prior to use. Peptides were eluted using a linear acetonitrile gradient from either 5 to 95% eluent B2 in 30 min, 5 to 70% eluent B2 in 65 min, or 7.5 to 95% eluent B3 in 58 min. Unless otherwise indicated, separations were performed at 60 °C with a flow rate of 0.2 mL/min and the absorbance was recorded at 214 nm. Fractions were analyzed by matrix-assisted laser desorption/ionization time-of-flight MS (MALDI-TOF/TOF–MS) on a 5800 proteomic analyzer (ABSciex GmbH, Darmstadt, Germany) operating in reflector mode and using a solution of α-cyano-4-hydroxycinnamic acid (4 g/L) in eluent A2 as matrix.

Data set [2] in a line: RP-HPLC retention at neutral pH, Synergi Fusion RP, potassium phosphate. To be noted: potassium phosphate 10 mmol/L pH 7.2, 60 °C, UV 214 nm; for retention time (tr): Synergi Fusion RP, family #2 mixture (Fig. S10). How it is done:
as §1

Data set [3] is described as follows: IP-RP-HPLC retention, Jupiter C18, 0.1% TFA. To be noted: 60 °C, UV 214 nm. The procedure: Separations used a Jupiter C18 column (ID: 2 mm, length: 150 mm, particle size: 5 µm, pore size: 300 Å, Phenomenex) and a System Gold HPLC equipped with a 508 autosampler (100 µL injection volume), a 125NM binary gradient pump, and a UV detector (Knauer GmbH, Berlin, Germany). Eluents were 0.1% (v/v) TFA (eluent A1) and 60% (v/v) aqueous acetonitrile containing 0.1% (v/v) TFA (eluent A2). Peptides were eluted using a linear acetonitrile gradient from either 5 to 95% eluent A2 in 30 min or 5 to 60% eluent A2 in 55 min. Separations were performed at a column temperature of 60 °C with a flow rate of 0.2 mL/min, and the absorbance was recorded at 214 nm. Separations were performed twice with deviations of the retention times of ~ 0.2 min for the shallow gradient.

Data set [4] can be described thus: RP-HPLC retention at neutral pH, Synergi Fusion RP, sodium phosphate. To be noted: linear 65-min gradient 3 to 42% acetonitrile, sodium phosphate 10 mmol/L pH 7.2, 60 °C, UV 214 nm, family mixture. How it is done:
as §1

A short description of data set [5]: nanoUPLC-ESI-Orbitrap-MS retention, BEH C18, 0.1% formic acid. To be noted: nanoRP-UPLC, 30 °C, XIC; for retention time (tr): Acquity BEH C18 (1.7 µm), 87-min gradient 3 to 40% acetonitrile, glycated peptide mixture, 500 fmol each, glucated peptide or glucosyl-lysine species of the fructated peptide; for retention time (tr), mannosyl-lysine species: Acquity BEH C18, 87-min gradient 3 to 40% acetonitrile, second peak of the fructated peptide (mannosyl-lysine). How it is done:
Peptides were analyzed on a nanoAcquity UPLC (Waters GmbH) coupled on-line to an LTQ Orbitrap XL ETD mass spectrometer equipped with a nano-ESI source (Thermo Fisher Scientific GmbH, Bremen, Germany) operated in positive ion mode. Eluents were aqueous formic acid (0.1% v/v; eluent D1) and acetonitrile-containing formic acid (0.1% v/v; eluent D2). Peptides (10 µL, 500 fmol each) were trapped on a nanoAcquity Symmetry C18 column (ID: 180 μm, length: 2 cm, particle diameter: 5 μm) at a flow rate of 5 μL/min (3% eluent D2). Separation was achieved on a BEH 130 column (C18 phase, ID: 75 μm, length: 10 cm, particle diameter: 1.7 μm) using a flow rate of 0.4 μL/min and a column temperature of 30 °C. Peptides were eluted with two linear gradients from 3 to 40% eluent D2 in 87 min and then to 85% eluent D2 in 5 min. The transfer capillary temperature was set to 200 °C, and an ion spray voltage of 1.4 kV was applied to a PicoTip™ on-line nano-ESI emitter (New Objective, Berlin, Germany). Mass spectra (m/z range 400 to 2000) were recorded in the Orbitrap mass analyzer at a resolution of 60,000 at m/z 400. Tandem mass spectra were acquired in CID mode (isolation width 2 m/z units, normalized collision energy 35%, activation time 30 ms, default charge state 2, intensity threshold of 500 counts) using data-dependent acquisition (DDA) for the six most intense signals with a dynamic exclusion window of 60 s.

Setting [6] is: Jupiter C18, 0.1% TFA, 0.6% acetonitrile/min, family injected as a mixture (Fig. S3F).

For the substance “ADLAKAmaYIC*ENQDSISSK [2B, glucated (Amadori) tryptic peptide HSA A258-K274, K262]”, the “retention time (tr)” value in data set [1] is reported as 38.0 min; in data set [2], 32.9 min.

“ADLAKHeyYIC*ENQDSISSK [2C, fructated (Heyns) tryptic peptide HSA A258-K274, K262]”: the entries for the “retention time (tr)” value in data set [1] and in data set [2] were 36.5 min and 31.4 min, respectively.

Consider “AEFAEVSKAmaLVTDLTK [6B, glucated (Amadori) tryptic peptide HSA A226-K240, K233]”, for which, in data set [3] (setting [6]), the retention time is given as 52.2 min. The “retention time (tr)” value in data set [4] is reported as 45.3 min; in data set [5], 56.0 min.

Turning to “AEFAEVSKHeyLVTDLTK [6C, fructated (Heyns) tryptic peptide HSA A226-K240, K233]”, the retention time in data set [3] (setting [6]) was 51.9 min. Further, in data set [4], the “retention time (tr)” value was 43.4 min. In addition, in data set [5], the “retention time (tr)” value was found to be 55.7 min and the “retention time (tr), mannosyl-lysine species” value amounted to 56.3 min.

Take “AVGDKHeyLPEC*EAVC*GKPK [1C, fructated (Heyns) tryptic peptide HP A77-K93, glycation site K81]”: the retention time in data set [3] (Jupiter C18 (5 µm, 300 Å), 0.1% TFA, 5 to 60% eluent A2 in 55 min (0.6% acetonitrile/min), 0.2 mL/min, performed twice, deviations ~0.2 min) was found to be 27.6 min. Moreover, the “acetonitrile content at elution” value in data set [3] (Jupiter C18, 0.1% TFA, 0.6% acetonitrile/min) is given as ~ 13%.

As for “EQLKAmaAVMDDFAAFVEK [7B, glucated (Amadori) tryptic peptide HSA E542-K557, K545]”, the “retention time (tr)” value in data set [5] was found to be 59.5 min.

As to “EQLKHeyAVMDDFAAFVEK [7C, fructated (Heyns) tryptic peptide HSA E542-K557, K545]”, in data set [5], the “retention time (tr)” value is given as 59.5 min and the “retention time (tr), mannosyl-lysine species” value is given as 60.2 min.

As to “TC*VADESAENC*DKHeySLHTLFGDK [3C, fructated (Heyns) tryptic peptide HSA T52-K73, K64]”, the retention time in data set [2] (new Synergi Fusion RP column, 58-min gradient 3 to 38% acetonitrile (eluent B3, 0.6%/min)) amounted to 26.2 min.
